In US8115014B2, “Ethynylindole compounds” (ONO Pharmaceuticals, Co., Ltd., priority 2008, dated 2012) one finds IC50 data, which are given here for 4 molecules.

One assay has as its target T1, human cysLT1 receptor (Homo sapiens, UniProt Q9Y271).
T1 construct: expressed in transfected cells; host or cells: Chinese hamster ovary (CHO) cells
T1 sequence (Q9Y271 1-337): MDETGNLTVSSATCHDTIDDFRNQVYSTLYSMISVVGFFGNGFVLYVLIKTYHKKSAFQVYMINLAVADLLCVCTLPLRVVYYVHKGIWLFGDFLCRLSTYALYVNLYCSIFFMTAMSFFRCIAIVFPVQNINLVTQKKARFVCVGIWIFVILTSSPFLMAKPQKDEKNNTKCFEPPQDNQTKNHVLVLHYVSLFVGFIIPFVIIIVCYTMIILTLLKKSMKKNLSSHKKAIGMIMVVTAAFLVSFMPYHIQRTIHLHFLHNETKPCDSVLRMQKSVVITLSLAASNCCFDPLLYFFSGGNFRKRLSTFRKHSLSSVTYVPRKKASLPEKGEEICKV
Nature of the assay: Effects of compounds on LTD4-induced increase in intracellular calcium levels, CHO cells expressing the human cysLT1 receptor. Format: cell-based. To be noted: 100 nM LTD4, compound applied 30 minutes prior, read-out: IC50 (50% inhibitory concentration), LTD4-induced intracellular calcium influx. As for the experimental part: (§1) Chinese hamster ovary (CHO) cells expressing the human cysLT1 receptor were seeded at a density of 0.4×10^5 cells/well into a 96-well plate and cultured in an F-12 medium at 37° C. in the presence of 5% CO2 for 24 hours. The cells were incubated in the culture medium containing 7.5 μM Fura2-AM, 20 mM 2-[4-(2-hydroxyethyl)-1-piperazinyl]ethanesulfonic acid (HEPES) and 2.5 mM probenecid, at 37° C. for about 60 minutes. The Fura2-AM-loaded cells were washed once with assay buffer (Hank's buffer containing 20 mM HEPES), and the LTD4-induced intracellular calcium influx was measured using a FDSS2000 (manufactured by Hamamatsu Photonics K.K.). The compounds of the present invention were applied 30 minutes prior to LTD4 stimulation, and time-course changes of the response provoked by 100 nM of LTD4 was measured over 150 seconds.

The target of the next assay is T2, human cysLT2 receptor (Homo sapiens, UniProt Q9NS75).
T2 construct: expressed in transfected cells; host or cells: HEK293 cells
T2 sequence (Q9NS75 1-346): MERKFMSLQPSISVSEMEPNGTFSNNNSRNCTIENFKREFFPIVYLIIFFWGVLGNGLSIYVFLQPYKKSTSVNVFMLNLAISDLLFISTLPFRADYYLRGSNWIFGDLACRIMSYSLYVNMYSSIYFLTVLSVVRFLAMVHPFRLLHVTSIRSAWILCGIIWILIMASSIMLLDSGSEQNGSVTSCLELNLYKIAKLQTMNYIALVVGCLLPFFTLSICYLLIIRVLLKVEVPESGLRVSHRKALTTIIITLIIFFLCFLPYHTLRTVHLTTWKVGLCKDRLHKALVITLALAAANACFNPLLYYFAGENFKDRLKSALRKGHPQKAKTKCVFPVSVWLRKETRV
Nature of the assay: Effects of compounds on LTD4-induced increases in intracellular calcium levels, HEK293 cells expressing the human cysLT2 receptor. The following applies: 100 nM LTD4, compound applied 30 minutes prior, read-out: IC50 (50% inhibitory concentration), LTD4-induced intracellular calcium influx. Format: cell-based. The protocol:
as §1, with “The” for “Chinese hamster ovary (CHO) cells expressing the human cysLT1 receptor were seeded at a density of 0.4×10^5 cells/well into a 96-well plate and cultured in an F-12 medium at 37° C. in the presence of 5% CO2 for 24 hours. The”

Take `Cc1c(CCCC(=O)O)c2cccc(C#Cc3ccc(OCCCCc4c(F)c(F)c(F)c(F)c4F)cc3)c2n1CCCC(=O)O` [Example 9, 4,4′-[2-methyl-7-({4-[4-(pentafluorophenyl)butoxy]phenyl}ethynyl)-1H-indole-1,3-diyl]dibutanoic Acid]: the IC50 was found to be 1.1 nM at human cysLT1 receptor and 2.8 nM on human cysLT2 receptor.

With `Cc1c(CCCC(=O)O)c2cccc(C#Cc3ccc(OCCCCc4cc(F)c(F)c(F)c4F)cc3)c2n1CC(=O)O` [Example 11, 4-[1-(carboxymethyl)-2-methyl-7-({4-[4-(2,3,4,5-tetrafluorophenyl)butoxy]phenyl}ethynyl)-1H-indol-3-yl]butanoic Acid], the IC50 at human cysLT1 receptor was determined as 0.21 nM; on human cysLT2 receptor it was 0.77 nM.

Take `Cc1c(Cl)cccc1CCCCOc1ccc(C#Cc2cccc3c(CC4(CC(=O)O)CC4)c(C)n(CC(=O)O)c23)cc1` [Example 21 (1), (1-{[1-(carboxymethyl)-7-({4-[4-(3-chloro-2-methylphenyl)butoxy]phenyl}ethynyl)-2-methyl-1H-indol-3-yl]methyl}cyclopropyl)acetic Acid]: the IC50 on human cysLT1 receptor turned out to be 0.16 nM; on human cysLT2 receptor, 2.1 nM.

As to `Cc1c(F)cccc1CCCCOc1ccc(C#Cc2cccc3c(CC4(CC(=O)O)CC4)c(C)n(CC(=O)O)c23)cc1` [Example 21 (2), [3-{[1-(carboxymethyl)cyclopropyl]methyl}-7-({4-[4-(3-fluoro-2-methylphenyl)butoxy]phenyl}ethynyl)-2-methyl-1H-indol-1-yl]acetic Acid], the figures for the IC50 at human cysLT1 receptor and on human cysLT2 receptor were 0.24 nM and 2.9 nM, respectively.
